In US20220211663A1, “NANO CO-DELIVERY OF QUERCETIN AND ALANTOLACTONE PROMOTES ANTI-TUMOR RESPONSE THROUGH SYNERGISTIC IMMUNOGENIC CELL DEATH FOR MICROSATELLITE-STABLE COLORECTAL CANCER” (The University of North Carolina at Chapel Hill, priority 2019, published 2022):
Blank lines part the entries; values can stand above or below the molecule they belong to.

How the values were obtained:
[1] = test system: orthotopic CT26-FL3 tumors; experiment: Orthotopic colon tumor growth inhibition and survival; assay type: in vivo, Balb/c mice; details: i.v. four times every other day, Q 3 mg/kg, A 9 mg/kg
Description: An orthotopic CT26-FL3 colorectal tumor model was established in female Balb/c mice as reported previously. Song et al., 2018. Twenty-eight tumor-bearing mice were divided into seven random groups: PBS, free Q (Q-F), free A (A-F), combination of free Q and A (QA-F), Q-M, A-M and QA-M. Formulations were intravenously injected to mice once every 2 days by total four injections (i.v.) with a Q dose of 3 mg/kg and A dose of 9 mg/kg. Mice in PBS groups were injected with PBS as control. The tumor burden was detected by intraperitoneal (i.p.) injection of 100 μL of D-luciferin (Pierce™, 20 mg/mL) followed by bioluminescent analysis using an IVIS® Kinetics Optical System (Perkin Elmer, Calif.). The tumor growth and body weight of mice were recorded every 2 days. The increment of tumor volume was calculated as luminescence intensities and normalized to the original value on the first day of measurement (Vt/V0). Body weight of mice in each group was documented. Nine days after the last injection, mice were sacrificed and the tumor, heart, liver, spleen, lung and kidney tissues were removed and used for the present study. Blood samples were collected from the orbital plexus into heparinized tubes and then centrifuged at 5,000 rpm for five minutes to separate the plasma. One portion of tumor, spleen and lymph nodes were collected for flow cytometric analysis. […]

CT26-FL3 cells [2] = experiment: CRT translocation by immunofluorescence (ICD); assay type: cell-based, murine; details: free Q alone 0.07 μM, 4 h
Description: (§1) CT26-FL3 cells were seeded in 35-mm cell culture dishes with glass bottom at the density of 2×10^5 per dish and incubated for 24 h before treatment. The cell culture medium was removed and replenished with different combination of Q and A containing media at the indicated concentrations for 4 h for CRT detection and for 8 h for HMGB1 detection. Cells were fixed and washed 3 times. A primary antibody, anti-CRT antibody (ab2907, 1:500, Abcam), diluted in cold blocking buffer (10% goat serum in PBS), was added for 60 min. After three washes in cold PBS, cells were then incubated for 60 min with the Alexa Fluor® 488 Goat Anti-Rabbit (IgG) (ab150077, 1:500, Abcam) diluted in a cold blocking buffer. Cells were fixed with 4% PFA for 20 min, and DAPI Mounting Medium was added for nuclear staining. For intracellular HMGB1 staining, cells were fixed and washed 3 times. Afterwards, cells were permeabilized with 0.1% Triton X-100 containing blocking buffer for 10 min, and rinsed three times with PBS, and nonspecific binding sites were blocked for 30 min A primary antibody for HMGB1 (ab79823, 1:500, Abcam) was added for 60 min. Cells were then incubated for 60 min with the Alexa Fluor® 488 Goat Anti-Rabbit (IgG) (ab150077, 1:500, Abcam) diluted in a cold blocking buffer. Cells were fixed with 4% PFA for 20 min, and DAPI Mounting Medium was added for nuclear staining. […]

CT26-FL3 cells [3] = experiment: MTT cytotoxicity and combination index (Chou and Talalay); assay type: cell-based, murine; details: Mus musculus, 24 h incubation, read-out: IC50 of Q alone
Description: The cytotoxicity of free Q, free A and drugs combination against CT26-FL3 cells were assessed using the MTT (3-[4,5-dimethylthiazol-2-yl]-2,5-diphenyltetrazolium bromide) method. Zhang et al., 2017. Cells were seeded in 96-well plates (5×10^3 cells per well) and incubated for 24 h before treatment. Then the culture medium was withdrawn and fresh medium containing free drugs and drug combination with a series of concentration were added to each well. Following 24-h incubation, cell viability was determined by MTT assay. The synergy of Q and A was evaluated by using the Chou and Talalay method to calculate the combination index (CI). Zhang et al., 2014; Chou et al., 1984. CI was calculated by using the following equation (1): CI=(D)1/(Dx)1+(D)2/(Dx)2 (1) […]

[4] = Maximum concentration of free drug in lecithin suspension (sink condition); assay type: physicochemical; details: lecithin suspension 100 mg/mL
Description: The release behaviors of Q and A from QA-M were investigated by a dialysis method. The QA-M (2 mL) was placed into a preswelled dialysis bag (cutting Mw 8000), which was then immersed into empty lecithin suspension (PC-98T, 100 mg/mL, 100 mL) at 37° C. for 72 hours under stirring at a speed of 100 rpm. The lecithin suspension was formed by film-hydration method followed by sonication and the size of this lecithin suspension was around 100 nm. Sink condition was confirmed by determination of the maximum concentration for free Q and A in the lecithin suspension, which was 0.5 mg/mL and 0.8 mg/mL, respectively. At different time points, 1.0 mL of sample was withdrawn from the release medium, mixed with methanol and measured for the Q and A using the HPLC method mentioned above. The release medium was replenished with an equal volume of fresh medium at 37° C. Sink condition was maintained throughout the experiment. All measurements were performed in triplicate, and the mean values and standard deviations are calculated.

CT26-FL3 cells [5] = experiment: HMGB1 release by immunofluorescence (ICD); assay type: cell-based, murine
Description: as §1

SMILES: O=c1c(O)c(-c2ccc(O)c(O)c2)oc2cc(O)cc(O)c12 [Q-F, quercetin]
tumor growth [1]: very similar to that of QA-F

maximum concentration in the lecithin suspension [4]: 0.5 mg/mL
SMILES: O=c1c(O)c(-c2ccc(O)c(O)c2)oc2cc(O)cc(O)c12 [Q, quercetin]
CRT translocation (CT26-FL3 cells [2]): minimum or undetectable effect
IC50 (CT26-FL3 cells [3]): 148 µM
HMGB1 release (CT26-FL3 cells [5]; free Q alone 0.33 μM, 8 h): minimum or undetectable effect
release of HMGB1 compared to control group (CT26-FL3 cells [5]; single drug: Q 0.33 μM, A 1.3 μM): undetectable release
